Source: patent EP4104902B1, “COMPOUNDS AND M[…] SAME” (priority 2020, dated 2021)
Like-named read-outs stand apart in the source and are kept apart here.

System: recombinant rabies virus 1088 strain expressing Gaussia Luciferase (GLuc) (1088/GLuc)
Type: cell-based

| Structure (SMILES) | IC50 (read-out: Anti-rabies activity) | IC50 (read-out: IC50) |
| --- | --- | --- |
| Cc1cccc(CNC(=O)[C@@]23C[C@@H]4CN(CC(C)C)[C@@H]([C@@H]4CN2)[C@H]3Cc2ccccc2)c1 (relative stereo) [IF-15] | 10 to 30 µM | 17.1 µM |
| O=C(NCCc1ccccc1)[C@@]12C[C@@H]3CN(Cc4ccc(F)cc4)[C@@H]([C@@H]3CN1)[C@H]2Cc1ccc(O)cc1 (relative stereo) [IF-715] | < 5 µM |  |
| O=C(NCCO)[C@]12NC[C@@H]3C[C@H]1CN(Cc1ccc(F)cc1)[C@H]2[C@@H]3Cc1ccccc1 (relative stereo) [IB-649] | 10 to 30 µM |  |
| CC(C)CN1CC2CC3CNC2(C(=O)NCc2ccc(F)cc2)C1C3Cc1ccc(O)cc1 (centres unmarked) [IB-498] | < 5 µM |  |
| CC(C)CCN1C[C@@H]2C[C@H]3CN[C@]2(C(=O)NCCO)[C@@H]1[C@@H]3Cc1cccc2ccccc12 (relative stereo) [IB-659] | < 5 µM |  |
| CC(C)CC[C@@H]1[C@@H]2CN[C@@]3(C(=O)NCCC(N)=O)[C@@H](C2)CN(Cc2ccccc2)[C@@H]13 (relative stereo) [IB-274] | 10 to 30 µM |  |
| CC(C)CCNC(=O)C12NCC3CC1CN(CC(C)C)C2C3Cc1ccccc1 (centres unmarked) [IB-870] | 10 to 30 µM |  |
| CC(C)CCN1C[C@H]2C[C@]3(C(=O)NCC(C)C)NC[C@H]2[C@H]1[C@H]3Cc1ccccc1 (relative stereo) [IF-735] | 10 to 30 µM |  |
| CC(C)CCN1C[C@H]2C[C@]3(C(=O)NCc4cccc(Cl)c4)N=C[C@H]2[C@H]1[C@H]3Cc1ccccc1 (relative stereo) [IIF-325] | < 5 µM |  |
| Cc1cccc(CNC(=O)[C@]23NC[C@@H]4C[C@H]2CN(CC(C)C)[C@H]3[C@@H]4Cc2ccccc2)c1 (relative stereo) [IB-15] | 10 to 30 µM | 15.9 µM |
| CC(C)CCN1C[C@@H]2C[C@H]3CN[C@]2(C(=O)NCc2ccc(F)cc2)[C@@H]1[C@@H]3CC(C)C (relative stereo) [IB-553] | < 5 µM |  |
| CC(C)CCN1C[C@H]2C[C@]3(C(=O)NCc4cccc5ccccc45)NC[C@H]2[C@H]1[C@H]3CC(C)C (relative stereo) [IF-705] | < 5 µM |  |
| CC(C)CNC(=O)[C@@]12C[C@@H]3CN(Cc4ccccc4)[C@@H]([C@@H]3CN1)[C@H]2CCc1ccccc1 (relative stereo) [IF-670] | < 5 µM |  |
| NC(=O)CN1CC2CC3(C(=O)NCc4cccc5ccccc45)NCC2C1C3Cc1cccc2ccccc12 (centres unmarked) [IF-91] | < 5 µM |  |
| O=C(NCc1cccc2ccccc12)[C@@]12C[C@@H]3CN(CCO)[C@@H]([C@@H]3CN1)[C@H]2Cc1ccc(O)cc1 (relative stereo) [IF-543] | 10 to 30 µM |  |
| O=C(NCc1cccc2ccccc12)C12CC3CN(Cc4ccccc4)C(C3CN1)C2Cc1ccccc1 (centres unmarked) [IF-805] | 10 to 30 µM |  |
| CC(C)CCNC(=O)[C@@]12C[C@@H]3CN(CC(C)C)[C@@H]([C@@H]3CN1)[C@H]2CCc1ccccc1 (relative stereo) [IF-673] | < 5 µM |  |
| O=C(NCc1ccc(O)cc1)[C@@]12C[C@@H]3CN(CC4CCCCC4)[C@@H]([C@@H]3CN1)[C@H]2CCc1ccccc1 (relative stereo) [IF-475] | 10 to 30 µM |  |
| CC(C)NC(=O)[C@@]12C[C@@H]3CN(Cc4cccc5ccccc45)[C@@H]([C@@H]3CN1)[C@H]2CCCNC(=N)N (relative stereo) [IF-244] | < 5 µM |  |
| CC(C)CC[C@@H]1[C@@H]2CN[C@@]3(C(=O)NCCc4ccccc4)[C@@H](C2)CN(CC(N)=O)[C@@H]13 (relative stereo) [IB-89] | < 5 µM |  |
| CC(C)CNC(=O)[C@]12NC[C@@H]3C[C@H]1CN(Cc1ccc(F)cc1)[C@H]2[C@@H]3Cc1ccc(O)cc1 (relative stereo) [IB-631] | 10 to 30 µM |  |
| CC(C)CNC(=O)[C@]12NC[C@@H]3C[C@H]1CN(Cc1ccccc1)[C@H]2[C@@H]3CCCNC(=N)N (relative stereo) [IB-198] | 10 to 30 µM |  |
| CC(C)CC[C@@H]1[C@@H]2CN[C@@]3(C(=O)NCCc4ccccc4)[C@@H](C2)CN(Cc2ccc(O)cc2)[C@@H]13 (relative stereo) [IB-544] | 10 to 30 µM |  |
| O=C(O)CCNC(=O)C12CC3CN(CCO)C(C3CN1)C2Cc1cccc2ccccc12 (centres unmarked) [IF-444] | 10 to 30 µM |  |
| COc1ccc(CNC(=O)[C@@]23C[C@@H]4CN(CC(C)C)[C@@H]([C@@H]4C=N2)[C@H]3CCc2ccccc2)cc1 (relative stereo) [IIF-332] | < 5 µM |  |
| CC(C)CC[C@@H]1[C@@H]2[C@@H]3CN[C@@]1(C(=O)NCc1ccc(O)cc1)C[C@@H]3CN2CCc1ccccc1 (relative stereo) [IF-468] | 10 to 30 µM |  |
| NC(=O)CC1C2C3CNC1(C(=O)NCCO)CC3CN2Cc1cccc2ccccc12 (centres unmarked) [IF-230] | 10 to 30 µM |  |
| CC(C)CNC(=O)[C@]12NC[C@@H]3C[C@H]1CN(CC(C)C)[C@H]2[C@@H]3CCCNC(=N)N (relative stereo) [IB-187] | 10 to 30 µM |  |
| N=C(N)NCCCNC(=O)[C@]12NC[C@@H]3C[C@H]1CN(Cc1cccc4ccccc14)[C@H]2[C@@H]3CCc1ccccc1 (relative stereo) [IB-354] | < 5 µM |  |
| O=C(O)CCNC(=O)C12CC3CN(Cc4ccc(F)cc4)C(C3CN1)C2Cc1cccc2ccccc12 (centres unmarked) [IF-417] | 10 to 30 µM |  |
